The values that follow come from US9770520B2, “Chelate nanoemulsion for MRI” (GUERBET, priority 2011, dated 2017).

This assay addresses T1, ∞vβ3 (Homo sapiens, UniProt P05106+P06756).
T1 construct: performed on HUVEC cells overexpressing ∞vβ3; endogenous in cells; host or cells: HUVEC
Put plainly: IC50 by competition with echistatin 125I on HUVEC cells. In kind it is binding. The conditions noted are these: competition with echistatin-125I-SIB, read-out: IC50 (nM of targeting ligand).

Turning to `CCCCCCCCCCCCCCCCCC(=O)OCC(COP(=O)(O)OCCNC(=O)OCCOCCOCCOCCOCCOCCOCCOCCOCCOCCOCCOCCOCCOCCOCCOCCOCCOCCOCCOCCOCCOCCOCCOCCOCCOCCOCCOCCOCCOCCOCCOCCOCCOCCOCCOCCOCCOCCOCCOCCOCCOCCOCCOCCOCCNc1c(NCCNC(=O)CCCOc2cc(C)c(S(=O)(=O)CNC(NC(=O)CCCCc3ccc4c(n3)NCCC4)C(=O)O)c(C)c2)c(=O)c1=O)OC(=O)CCCCCCCCCCCCCCCCC` (stereo not shown) [Example 6], the IC50 (commonly the concentration needed to halve the response being measured) is 0.4 nM.
